Data reported in patent US7812016B2, “Naphthyridine integrase inhibitors” (SmithKline Beecham Corporation, priority 2003, dated 2010).

Test system: HIV-1 (strain IIIB)
Test: MT4 Cell Assay (antiviral HIV activity, propidium iodide or MTS readout)
Type: cell-based
Settings: Human immunodeficiency virus 1, IIIB, expected range for the control and standard, tested in every assay, MT4 cells
Experimental: Antiviral HIV activity and compound-induced cytotoxicity were measured in parallel by means of a propidium iodide based procedure in the human T-cell lymphotropic virus transformed cell line MT4. Aliquots of the test compounds were serially diluted in medium (RPMI 1640, 10% fetal calf serum (FCS), and gentamycin) in 96-well plates (Costar 3598) using a Cetus Pro/Pette. Exponentially growing MT4 cells were harvested and centrifuged at 1000 rpm for 10 min in a Jouan centrifuge (model CR 4 12). Cell pellets were resuspended in fresh medium (RPMI 1640, 20% FCS, 20% IL-2, and gentamycin) to a density of 5×10^5 cells/ml. Cell aliquots were infected by the addition of HIV-1 (strain IIIB) diluted to give a viral multiplicity of infection of 100× TCID50. […]
A. For propidium iodide readout, 27 μl of 5% Nonidet40 was added to each well of the incubation plate. […] The plates were analyzed in an automated assay instrument (Screen Machine, Idexx Laboratories). […]
B. For MTS readout, 20 μl CellTiter 96 AQ One Solution reagent (Promega #G3582) was added to each well. At 75 minutes following the addition of MTS reagent, absobance was read at 492 nm using a Tecan Sunrise 96-well plate reader. […]
For each assay plate, the results (relative fluorescence units, rfU, or OD values) of wells containing uninfected cells or infected cells with no compound were averaged, respectively. […]

Structure (SMILES): Cc1cn([C@H]2C[C@H](N=[N+]=[N-])[C@@H](CO)O2)c(=O)[nH]c1=O [3′-azido-3′-deoxythymidine]
- IC50: 40 to 120 nM
